Measurements: US12590066B2, “Fused-heterocyclyl-carbonohydrazonoyl dicyanide compounds and use thereof” (KOREA INSTITUTE OF SCIENCE AND TECHNOLOGY, priority 2020, dated 2026)

How the values were obtained:
Tau-BiFC cells = experiment: Cell viability (stained nuclei count) in Tau-BiFC cells; type: cell-based; details: 10 μM compound, 48 hours; Forskolin-only group = 100% cell viability
Method in brief: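 Tau-BiFC cells co-treated 48 h with 30 μM forskolin and compounds (1, 3, 10 μM screen; 0.01–30 μM dose-response). BiFC fluorescence normalized to forskolin-only (100% aggregation) minus untreated gives aggregation inhibition and IC50; viability as Hoechst-stained nuclei count relative to forskolin-only.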

CYP1A2 = biological target: T1, CYP1A2 (Homo sapiens, UniProt P05177); experiment: Inhibitory effect on CYP coenzyme activity, human liver microsomes; type: in vitro ADME; details: 10 μM compound, human liver microsomes 0.25 mg/mL, substrate phenacetin, 15 minutes
T1 construct: human liver microsomes (0.25 mg/mL); from tissue; host or cells: human liver microsomes
T1 sequence (P05177 1-516): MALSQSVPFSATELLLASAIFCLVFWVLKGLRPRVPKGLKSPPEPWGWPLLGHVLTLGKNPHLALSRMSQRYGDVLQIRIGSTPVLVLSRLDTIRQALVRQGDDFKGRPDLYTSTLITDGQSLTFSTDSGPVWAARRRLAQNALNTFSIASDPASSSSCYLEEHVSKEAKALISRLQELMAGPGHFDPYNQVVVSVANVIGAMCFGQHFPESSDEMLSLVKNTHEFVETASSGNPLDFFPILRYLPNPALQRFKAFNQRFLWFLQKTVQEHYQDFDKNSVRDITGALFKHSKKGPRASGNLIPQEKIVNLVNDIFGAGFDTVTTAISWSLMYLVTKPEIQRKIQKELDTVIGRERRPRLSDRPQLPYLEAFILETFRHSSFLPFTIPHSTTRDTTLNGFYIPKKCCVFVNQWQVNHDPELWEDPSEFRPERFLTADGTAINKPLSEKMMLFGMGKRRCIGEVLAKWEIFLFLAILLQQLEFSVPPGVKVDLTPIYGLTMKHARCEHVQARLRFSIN
Method in brief: (§1)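 Human liver microsomes (0.25 mg/mL) in 0.1 M phosphate pH 7.4 were preincubated 5 min at 37 °C with a substrate cocktail (50 μM phenacetin, 10 μM diclofenac, 100 μM S-mephenytoin, 5 μM dextromethorphan, 2.5 μM midazolam) and 10 μM compound, then run 15 min with NADPH-generating system. Metabolites quantified by LC-MS/MS (MRM); activity expressed as % of untreated control.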

CYP2C9 = biological target: T2, CYP2C9 (Homo sapiens, UniProt P11712); experiment: as above; type: in vitro ADME; details: 10 μM compound, human liver microsomes 0.25 mg/mL, substrate diclofenac, 15 minutes
T2 construct: human liver microsomes (0.25 mg/mL); from tissue; host or cells: human liver microsomes
T2 sequence (P11712 whole entry): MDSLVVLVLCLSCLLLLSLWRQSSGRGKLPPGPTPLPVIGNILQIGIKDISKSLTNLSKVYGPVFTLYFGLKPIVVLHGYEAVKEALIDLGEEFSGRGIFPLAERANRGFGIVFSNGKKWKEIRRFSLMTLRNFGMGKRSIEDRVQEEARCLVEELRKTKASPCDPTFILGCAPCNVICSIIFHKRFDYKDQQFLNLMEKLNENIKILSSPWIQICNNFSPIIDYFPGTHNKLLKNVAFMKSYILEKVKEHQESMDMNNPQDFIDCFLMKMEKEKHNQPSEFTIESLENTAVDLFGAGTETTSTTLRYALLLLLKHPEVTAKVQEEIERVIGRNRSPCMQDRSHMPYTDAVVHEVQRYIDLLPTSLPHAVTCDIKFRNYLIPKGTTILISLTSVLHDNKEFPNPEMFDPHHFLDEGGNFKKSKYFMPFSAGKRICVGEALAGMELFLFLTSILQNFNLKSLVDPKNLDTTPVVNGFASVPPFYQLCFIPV
Method in brief: as §1

CYP2D6 = biological target: T3, CYP2D6 (Homo sapiens, UniProt P10635); experiment: as above; type: in vitro ADME; details: 10 μM compound, human liver microsomes 0.25 mg/mL, substrate dextromethorphan, 15 minutes
T3 construct: human liver microsomes (0.25 mg/mL); from tissue; host or cells: human liver microsomes
T3 sequence (P10635 whole entry): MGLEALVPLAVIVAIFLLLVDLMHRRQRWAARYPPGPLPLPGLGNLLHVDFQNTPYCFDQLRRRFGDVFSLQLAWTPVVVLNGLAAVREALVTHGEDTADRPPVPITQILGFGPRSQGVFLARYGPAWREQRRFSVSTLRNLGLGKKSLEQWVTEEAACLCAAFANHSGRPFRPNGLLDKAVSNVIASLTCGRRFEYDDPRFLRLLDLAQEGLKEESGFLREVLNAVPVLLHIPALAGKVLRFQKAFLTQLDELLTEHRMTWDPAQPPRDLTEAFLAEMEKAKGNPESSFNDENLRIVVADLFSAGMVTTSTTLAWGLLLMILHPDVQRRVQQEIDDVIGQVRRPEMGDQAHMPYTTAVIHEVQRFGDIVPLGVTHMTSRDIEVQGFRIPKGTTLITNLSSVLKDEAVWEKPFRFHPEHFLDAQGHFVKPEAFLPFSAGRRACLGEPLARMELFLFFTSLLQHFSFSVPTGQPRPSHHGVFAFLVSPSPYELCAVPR
Method in brief: as §1

CYP3A4 = biological target: T4, CYP3A4 (Homo sapiens, UniProt P08684); experiment: as above; type: in vitro ADME; details: 10 μM compound, human liver microsomes 0.25 mg/mL, substrate midazolam, 15 minutes
T4 construct: human liver microsomes (0.25 mg/mL); from tissue; host or cells: human liver microsomes
T4 sequence (P08684 whole entry): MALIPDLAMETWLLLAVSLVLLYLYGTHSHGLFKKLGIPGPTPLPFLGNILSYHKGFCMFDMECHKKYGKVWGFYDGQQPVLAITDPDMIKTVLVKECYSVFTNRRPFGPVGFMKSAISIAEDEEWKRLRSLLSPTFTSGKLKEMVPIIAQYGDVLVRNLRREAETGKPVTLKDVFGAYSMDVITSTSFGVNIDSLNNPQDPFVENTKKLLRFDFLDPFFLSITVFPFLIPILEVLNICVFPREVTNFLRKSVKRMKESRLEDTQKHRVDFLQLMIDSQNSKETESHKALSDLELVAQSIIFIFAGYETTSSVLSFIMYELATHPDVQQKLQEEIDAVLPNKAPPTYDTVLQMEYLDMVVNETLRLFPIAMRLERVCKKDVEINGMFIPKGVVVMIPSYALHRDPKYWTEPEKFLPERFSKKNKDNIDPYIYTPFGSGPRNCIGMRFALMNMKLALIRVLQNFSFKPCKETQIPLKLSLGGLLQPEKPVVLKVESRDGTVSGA
Method in brief: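 Activity (% of vehicle control) from LC-MS/MS MRM quantitation of substrate metabolites. HLM 0.25 mg/mL, pH 7.4 phosphate, cocktail of phenacetin 50 μM, diclofenac 10 μM, S-mephenytoin 100 μM, dextromethorphan 5 μM, midazolam 2.5 μM; test compound 10 μM; 37 °C, 5 min preincubation plus 15 min with NADPH system.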

[1] = Liver microsome stability; type: in vitro ADME; details: 1 μM compound, 37° C., 30 minutes, NADPH; for Dog (%) amount of substrate remaining after the reaction: dog liver microsomes 0.25 mg/mL; for Human (%) amount of substrate remaining after the reaction: human liver microsomes 0.25 mg/mL; for Mouse (%) amount of substrate remaining after the reaction: mouse liver microsomes 0.25 mg/mL; for Rat (%) amount of substrate remaining after the reaction: rat liver microsomes 0.25 mg/mL
Description: The stability of liver microsomes due to the compounds prepared according to Examples 1 to 57 was confirmed. Specifically, four types of liver microsomes (human, dog, rat, and mouse, each 0.25 mg/mL), a 0.1 M phosphate buffer solution (pH 7.4), and each of the compounds at a concentration of 1 μM were mixed and pre-cultured at 37° C. for 5 minutes and further cultured at 37° C. for 30 minutes together with an NADPH generation system solution added thereto. Thereafter, the reaction was terminated by adding an acetonitrile solution containing an internal standard material (chloropropamide) and centrifuged for 5 minutes (14,000 rpm, 4° C.), and then a supernatant was injected into an LC-MS/MS system for analysis of substrate drugs to thereby evaluate metabolic stability due to 8 types of compounds.
The amount of the substrate remaining after the reaction was analyzed using the Shimadzu Nexera XR system and TSQ Vantage (Thermo). In an HPLC column, Kinetex XB-C18 (2.1 mm×100 mm, particle size of 2.6 μm; Phenomenex, USA) was used, and mobile phases were (A) distilled water containing 0.1% formic acid and (B) acetonitrile containing 0.1% formic acid. Analyst software (version 1.6.3) and Xcalibur (version 1.6.1) were used for data analysis.

| SMILES | Cell viability (% @10 μM) (Tau-BiFC cells) [%] | CYP1A2 coenzyme activity (%) with respect to control group not treated (CYP1A2) [%] | CYP2C9 coenzyme activity (%) with respect to control group not treated (CYP2C9) [%] | CYP2D6 coenzyme activity (%) with respect to control group not treated (CYP2D6) [%] | CYP3A4 coenzyme activity (%) with respect to control group not treated (CYP3A4) [%] | Dog (%) amount of substrate remaining after the reaction [1] [%] | Human (%) amount of substrate remaining after the reaction [1] [%] | Mouse (%) amount of substrate remaining after the reaction [1] [%] | Rat (%) amount of substrate remaining after the reaction [1] [%] |
| --- | --- | --- | --- | --- | --- | --- | --- | --- | --- |
| N#CC(C#N)=NNc1ccc2c(c1)sc(=O)n2C(F)F [Compound 19, (3-(difluoromethyl)-2-oxo-2,3-dihydrobenzo[d]thiazol-6-yl)carbonohydrazonoyl dicyanide] | 125.3 | 52.5 | 23.3 | 40.5 | 81.8 | 80.4 | 99.7 | 58.7 | 69.7 |
| CC(C)n1c(=O)oc2cc(NN=C(C#N)C#N)ccc21 [Compound 20, (3-isopropyl-2-oxo-2,3-dihydrobenzo[d]oxazol-6-yl)carbonohydrazonoyl dicyanide] | 106 | 87.3 | 32.3 | 98.1 | 98.8 | 95.6 | 98.1 | 73.1 | 73.3 |
| N#CC(C#N)=NNc1ccc2c(c1)oc(=O)n2C(F)F [Compound 21, (3-(difluoromethyl)-2-oxo-2,3-dihydrobenzo[d]oxazol-6-yl)carbonohydrazonoyl dicyanide] | 135 | 79.6 | 64.4 | 89.1 | 90.4 | 72.1 | 73.9 | 71.8 | 79.8 |
| Cn1c(=O)n(C)c2cc(NN=C(C#N)C#N)ccc21 [Compound 22, (1,3-dimethyl-2-oxo-2,3-dihydro-1H-benzo[d]imidazol-5-yl)carbonohydrazonoyl dicyanide] | 120.7 | 93.5 | 99 | >100 | >100 | 92.2 | 80.6 | 63.1 | 91.6 |
| CC(C)n1c(=O)n(C(C)C)c2cc(NN=C(C#N)C#N)ccc21 [Compound 23, (1,3-diisopropyl-2-oxo-2,3-dihydro-1H-benzo[d]imidazol-5-yl)carbonohydrazonoyl dicyanide] | 117 | 83.2 | 46.4 | 95.3 | 79.6 | 86.1 | 83.1 | 72.4 | 77.7 |
| N#CC(C#N)=NNc1ccc2c(c1)n(C(F)F)c(=O)n2C(F)F [Compound 24, (1,3-bis(difluoromethyl)-2-oxo-2,3-dihydro-1H-benzo[d]imidazol-5-yl)carbonohydrazonoyl dicyanide] | 125.1 | 32.8 | 40.6 | 82.5 | 78.1 | 88.1 | 88.2 | 84.1 | 86.8 |
| CC(C)n1c(=O)oc2ccc(NN=C(C#N)C#N)cc21 [Compound 29, (3-isopropyl-2-oxo-2,3-dihydrobenzo[d]oxazol-5-yl)carbonohydrazonoyl dicyanide] | 133 | 97.3 | 4.7 | 94.2 | >100 | – | >100 | 88.9 | 96.4 |
| COc1cc(NN=C(C#N)C#N)cc2c1n(C)c(=O)n2C [Compound 33, (7-methoxy-1,3-dimethyl-2-oxo-2,3-dihydro-1H-benzo[d]imidazol-5-yl)carbonohydrazonoyl dicyanide] | 114 | 37.8 | 69.9 | >100 | 97.6 | – | 93.2 | 78.7 | 85.5 |
